These results are taken from ChEMBL document CHEMBL5465560, “Selectivity Literature for EUbOPEN Chemogenomic Library” (2024).

For assay [1], the target named is T1, Mitogen-activated protein kinase 13 (Homo sapiens) (UniProt O15264).
T1 sequence (whole entry): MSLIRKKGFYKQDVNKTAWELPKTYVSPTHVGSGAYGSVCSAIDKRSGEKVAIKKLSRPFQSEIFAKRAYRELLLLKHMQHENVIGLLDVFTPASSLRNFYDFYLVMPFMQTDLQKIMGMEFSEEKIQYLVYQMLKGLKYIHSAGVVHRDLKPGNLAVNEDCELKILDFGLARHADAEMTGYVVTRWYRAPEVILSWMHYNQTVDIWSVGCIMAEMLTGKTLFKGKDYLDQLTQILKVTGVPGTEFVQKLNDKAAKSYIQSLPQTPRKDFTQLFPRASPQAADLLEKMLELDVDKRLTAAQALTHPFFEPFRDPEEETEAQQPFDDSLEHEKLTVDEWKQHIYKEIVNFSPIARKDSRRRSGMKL
As to the kind of experiment: Selectivity interaction (ProQinase) EUB0000171b MAPK13.

For assay [2], the target named is Cyclin-Y/Cyclin-dependent kinase 16 (Homo sapiens) (UniProt Q00536+Q8ND76). In words: Selectivity interaction (ProQinase) EUB0000171b CDK16. In kind it is protein-complex assay.
Assay [3] has as its target T2, Dual serine/threonine and tyrosine protein kinase (Homo sapiens) (UniProt Q6XUX3).
T2 sequence (whole entry): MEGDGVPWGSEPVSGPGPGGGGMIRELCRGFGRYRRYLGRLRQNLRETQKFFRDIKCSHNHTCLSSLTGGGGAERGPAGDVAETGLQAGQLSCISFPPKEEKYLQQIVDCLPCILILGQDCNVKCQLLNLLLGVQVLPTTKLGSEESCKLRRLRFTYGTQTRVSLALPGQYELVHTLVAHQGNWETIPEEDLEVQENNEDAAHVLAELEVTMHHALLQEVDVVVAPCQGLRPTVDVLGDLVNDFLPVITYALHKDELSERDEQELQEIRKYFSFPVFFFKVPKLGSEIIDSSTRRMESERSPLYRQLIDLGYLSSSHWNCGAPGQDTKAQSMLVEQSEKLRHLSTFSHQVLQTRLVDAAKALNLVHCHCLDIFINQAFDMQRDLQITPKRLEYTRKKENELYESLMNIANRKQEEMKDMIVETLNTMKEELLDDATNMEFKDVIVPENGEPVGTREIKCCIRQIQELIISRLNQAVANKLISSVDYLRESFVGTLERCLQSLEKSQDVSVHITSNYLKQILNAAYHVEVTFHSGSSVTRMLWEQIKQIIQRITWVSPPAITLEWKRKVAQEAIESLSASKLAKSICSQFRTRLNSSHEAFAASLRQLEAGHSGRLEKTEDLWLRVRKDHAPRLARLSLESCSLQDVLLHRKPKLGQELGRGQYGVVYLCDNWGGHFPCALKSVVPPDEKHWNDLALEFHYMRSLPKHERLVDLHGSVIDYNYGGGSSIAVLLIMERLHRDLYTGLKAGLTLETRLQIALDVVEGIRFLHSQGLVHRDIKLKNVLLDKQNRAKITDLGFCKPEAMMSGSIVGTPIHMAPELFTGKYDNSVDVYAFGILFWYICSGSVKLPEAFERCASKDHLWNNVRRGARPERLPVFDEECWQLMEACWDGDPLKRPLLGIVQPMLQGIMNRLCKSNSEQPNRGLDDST
In words: Selectivity interaction (Ambit KINOMEscan and KiNATiv profiling in Jurkat cells) EUB0000090b DSTYK. The conditions noted are these: at 1 µM. In kind it is cell-based.

Assay [4] deals with Citron Rho-interacting kinase (Homo sapiens) (UniProt O14578). In words: Selectivity interaction (KinomeScan (DiscoverX)) EUB0001079a CIT. The following applies: at 1 µM.
Assay [5] deals with T3, Histone-lysine N-methyltransferase SUV39H1 (Homo sapiens) (UniProt O43463).
T3 sequence (whole entry): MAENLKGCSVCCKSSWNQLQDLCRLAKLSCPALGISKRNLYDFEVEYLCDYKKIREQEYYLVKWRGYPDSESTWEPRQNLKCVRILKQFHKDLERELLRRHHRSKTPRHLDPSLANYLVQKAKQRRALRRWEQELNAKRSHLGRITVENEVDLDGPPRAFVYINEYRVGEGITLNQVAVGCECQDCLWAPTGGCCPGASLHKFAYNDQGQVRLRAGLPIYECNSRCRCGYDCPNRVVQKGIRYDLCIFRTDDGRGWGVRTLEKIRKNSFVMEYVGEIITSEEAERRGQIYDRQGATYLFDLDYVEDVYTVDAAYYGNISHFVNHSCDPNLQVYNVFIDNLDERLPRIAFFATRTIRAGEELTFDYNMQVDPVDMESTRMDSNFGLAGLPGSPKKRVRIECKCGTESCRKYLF
In words: Selectivity interaction (Methyltransferase screen (Scintillation proximity assays)) EUB0000255b SUV39H1. A general note: In a scintillation proximity assay essentially only radioactivity close to the scintillant gives light.

Assay [6] has as its target T4, Membrane-associated tyrosine- and threonine-specific cdc2-inhibitory kinase (Homo sapiens) (UniProt Q99640).
T4 sequence (whole entry): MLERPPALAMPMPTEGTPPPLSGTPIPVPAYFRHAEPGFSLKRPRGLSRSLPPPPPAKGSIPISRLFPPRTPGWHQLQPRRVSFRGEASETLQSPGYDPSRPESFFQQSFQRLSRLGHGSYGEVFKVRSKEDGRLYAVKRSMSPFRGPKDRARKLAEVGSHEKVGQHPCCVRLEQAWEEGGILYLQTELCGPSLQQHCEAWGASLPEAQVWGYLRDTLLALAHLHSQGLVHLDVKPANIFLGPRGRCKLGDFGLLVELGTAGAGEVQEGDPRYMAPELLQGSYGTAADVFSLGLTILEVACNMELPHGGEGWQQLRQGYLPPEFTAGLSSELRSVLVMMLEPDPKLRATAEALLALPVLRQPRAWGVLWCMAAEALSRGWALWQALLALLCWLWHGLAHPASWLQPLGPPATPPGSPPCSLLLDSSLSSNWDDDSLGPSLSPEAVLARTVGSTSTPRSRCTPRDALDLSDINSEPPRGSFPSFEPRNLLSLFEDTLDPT
As to the kind of experiment: Selectivity interaction (KinomeScan (DiscoverX)) EUB0000695a PKMYT1. The following applies: at 100 nM.

Assay [7] deals with T5, Dual specificity mitogen-activated protein kinase kinase 6 (Homo sapiens) (UniProt P52564).
T5 sequence (whole entry): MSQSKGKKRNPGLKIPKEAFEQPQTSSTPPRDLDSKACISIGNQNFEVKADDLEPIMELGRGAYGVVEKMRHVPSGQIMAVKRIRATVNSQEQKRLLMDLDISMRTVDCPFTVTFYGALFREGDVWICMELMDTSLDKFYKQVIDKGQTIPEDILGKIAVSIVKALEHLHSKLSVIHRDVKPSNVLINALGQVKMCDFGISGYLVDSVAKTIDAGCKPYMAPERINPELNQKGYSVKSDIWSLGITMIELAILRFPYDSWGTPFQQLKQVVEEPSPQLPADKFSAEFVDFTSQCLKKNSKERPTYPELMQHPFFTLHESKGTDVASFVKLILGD
As to the kind of experiment: Selectivity interaction (KinomeScan (DiscoverX)) EUB0000607a MAP2K6. The following applies: at 10 µM.

For assay [8], the target named is Leukocyte tyrosine kinase receptor (Homo sapiens, UniProt P29376). As to the kind of experiment: Selectivity interaction (KinomeScan (DiscoverX)) EUB0001619a LTK. The conditions noted are these: at 1 µM.
Leukocyte tyrosine kinase receptor, sequence (P29376 whole entry): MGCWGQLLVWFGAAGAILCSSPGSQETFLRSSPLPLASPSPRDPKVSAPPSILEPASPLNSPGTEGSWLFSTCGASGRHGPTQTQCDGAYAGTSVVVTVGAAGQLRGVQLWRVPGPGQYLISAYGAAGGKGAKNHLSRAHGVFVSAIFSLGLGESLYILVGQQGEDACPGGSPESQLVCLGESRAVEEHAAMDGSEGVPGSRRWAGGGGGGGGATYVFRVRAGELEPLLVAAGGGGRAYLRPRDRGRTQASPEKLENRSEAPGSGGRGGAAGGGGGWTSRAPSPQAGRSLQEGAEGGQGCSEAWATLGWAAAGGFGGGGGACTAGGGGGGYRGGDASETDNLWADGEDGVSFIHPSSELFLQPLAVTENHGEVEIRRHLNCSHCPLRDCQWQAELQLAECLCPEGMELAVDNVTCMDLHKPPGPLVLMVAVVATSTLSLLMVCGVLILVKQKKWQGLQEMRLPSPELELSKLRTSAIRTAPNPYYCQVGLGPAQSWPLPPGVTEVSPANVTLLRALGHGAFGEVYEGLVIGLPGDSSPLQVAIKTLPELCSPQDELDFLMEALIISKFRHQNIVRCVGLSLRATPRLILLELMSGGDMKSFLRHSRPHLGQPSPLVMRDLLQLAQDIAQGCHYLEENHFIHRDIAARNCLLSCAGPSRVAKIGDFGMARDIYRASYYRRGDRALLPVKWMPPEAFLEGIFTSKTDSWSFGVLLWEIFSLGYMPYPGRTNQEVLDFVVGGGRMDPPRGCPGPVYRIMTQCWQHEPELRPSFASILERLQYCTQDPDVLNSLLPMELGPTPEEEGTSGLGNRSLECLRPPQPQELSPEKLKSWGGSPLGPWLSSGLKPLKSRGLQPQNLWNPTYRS

Citron Rho-interacting kinase (Homo sapiens), sequence (O14578 whole entry): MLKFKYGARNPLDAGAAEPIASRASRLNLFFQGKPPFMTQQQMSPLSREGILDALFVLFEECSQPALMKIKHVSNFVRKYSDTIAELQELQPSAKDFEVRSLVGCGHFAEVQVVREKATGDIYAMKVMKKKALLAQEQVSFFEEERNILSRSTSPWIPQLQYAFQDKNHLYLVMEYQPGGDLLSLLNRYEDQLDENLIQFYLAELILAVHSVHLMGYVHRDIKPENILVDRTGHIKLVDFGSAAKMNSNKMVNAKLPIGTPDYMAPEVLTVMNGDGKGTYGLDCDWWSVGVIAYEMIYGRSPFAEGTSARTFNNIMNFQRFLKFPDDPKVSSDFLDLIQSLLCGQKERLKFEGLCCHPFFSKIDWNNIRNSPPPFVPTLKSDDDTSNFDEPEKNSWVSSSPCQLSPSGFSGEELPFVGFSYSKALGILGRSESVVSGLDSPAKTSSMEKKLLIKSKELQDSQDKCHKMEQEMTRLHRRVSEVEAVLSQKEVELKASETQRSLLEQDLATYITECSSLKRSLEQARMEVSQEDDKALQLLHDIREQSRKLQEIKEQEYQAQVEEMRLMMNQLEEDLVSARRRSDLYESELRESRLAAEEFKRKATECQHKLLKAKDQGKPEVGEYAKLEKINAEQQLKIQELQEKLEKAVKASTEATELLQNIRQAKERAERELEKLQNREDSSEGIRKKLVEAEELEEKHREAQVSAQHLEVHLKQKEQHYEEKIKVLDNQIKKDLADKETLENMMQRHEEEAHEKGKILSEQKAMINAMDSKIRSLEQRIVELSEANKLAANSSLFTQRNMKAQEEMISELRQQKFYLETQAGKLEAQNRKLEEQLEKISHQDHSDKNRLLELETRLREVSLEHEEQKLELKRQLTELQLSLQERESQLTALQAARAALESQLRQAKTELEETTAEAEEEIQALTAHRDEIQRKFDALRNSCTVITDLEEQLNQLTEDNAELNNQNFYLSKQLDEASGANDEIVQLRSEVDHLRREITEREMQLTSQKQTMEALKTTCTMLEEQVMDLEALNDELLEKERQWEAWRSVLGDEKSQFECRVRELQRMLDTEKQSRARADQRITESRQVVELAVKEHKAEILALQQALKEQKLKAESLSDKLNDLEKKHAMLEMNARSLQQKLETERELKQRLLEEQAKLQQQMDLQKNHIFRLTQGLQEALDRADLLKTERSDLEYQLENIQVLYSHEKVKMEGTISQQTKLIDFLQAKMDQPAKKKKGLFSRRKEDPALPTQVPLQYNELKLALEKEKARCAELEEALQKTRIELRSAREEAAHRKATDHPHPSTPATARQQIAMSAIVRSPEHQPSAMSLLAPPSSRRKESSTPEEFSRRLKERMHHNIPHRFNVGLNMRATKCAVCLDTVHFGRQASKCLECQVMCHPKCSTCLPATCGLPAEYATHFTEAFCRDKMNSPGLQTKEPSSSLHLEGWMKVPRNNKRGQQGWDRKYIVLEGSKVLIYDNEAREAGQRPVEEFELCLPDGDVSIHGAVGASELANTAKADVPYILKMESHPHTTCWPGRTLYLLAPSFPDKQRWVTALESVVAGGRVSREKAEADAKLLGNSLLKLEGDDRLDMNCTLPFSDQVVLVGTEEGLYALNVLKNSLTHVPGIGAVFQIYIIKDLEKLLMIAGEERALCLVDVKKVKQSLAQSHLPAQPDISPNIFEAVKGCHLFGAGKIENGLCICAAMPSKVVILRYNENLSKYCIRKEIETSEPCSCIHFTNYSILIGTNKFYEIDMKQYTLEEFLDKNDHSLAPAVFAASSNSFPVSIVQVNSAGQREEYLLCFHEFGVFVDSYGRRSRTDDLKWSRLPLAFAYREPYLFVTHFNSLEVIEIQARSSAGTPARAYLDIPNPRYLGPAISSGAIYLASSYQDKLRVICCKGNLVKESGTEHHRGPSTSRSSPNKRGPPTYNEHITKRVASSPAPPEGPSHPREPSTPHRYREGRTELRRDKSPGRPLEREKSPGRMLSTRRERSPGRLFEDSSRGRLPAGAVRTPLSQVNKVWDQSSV

Take `C=CC(=O)Nc1cccc(C(=O)Nc2ccc(Nc3cc(-c4[nH]c(SC)nc4C)ccn3)cc2)c1`: the % of control in assay [1] (at 1 µM) turned out to be 91%; in assay [1] (at 5 µM), 80%; in assay [2] (at 1 µM), 88%; in assay [2] (at 5 µM), 87%. In turn, `CN(C)C/C=C/C(=O)Nc1ccc(C(=O)N2CCCC(Nc3ncc(Cl)c(-c4c[nH]c5ccccc45)n3)C2)cc1` (stereo unspecified) showed a % of control in assay [3] of 100%.

In assay [4], `Nc1cnc(N2CCc3cc(S(=O)(=O)Nc4c(F)cc(Cl)cc4F)cc(N4CCCC4=O)c32)nc1` [TP-020n] came in with a % of control of 91%. Consider `COCCN1CCC(c2cc(CN(C)C(=O)c3cccc(Oc4ccccc4)c3)ccn2)CC1`, for which the % activity is > 95% in assay [5] (at 1 µM) and > 90% in assay [5] (at 10 µM). For the molecule `Cc1cc(F)c(C(=O)Nc2cccc(-c3nncn3C(C)C)n2)cc1-n1cnc(C2CC2)c1`, the % of control in assay [6] stood at 98%. In the case of `CNC(=O)Nc1ccc(-c2nc(N3CC4CCC(C3)O4)c3cnn(C4CCC5(CC4)OCCO5)c3n2)cc1`, the % of control in assay [7] amounted to 95%.

For `N#Cc1cccc(-c2c[nH]c3ncnc(N4CCOCC4)c23)c1`, the % of control in assay [8] was 100%.
